# Data published in US10500245B2, “Compositions for preventing and/or treating pathological conditions associated with alpha-glucosidase” (UNIVERSITE DE LA ROCHELLE, priority 2014, dated 2019).
# Read-outs that look alike come from different tables or passages of the source. Where a SMILES comes first, the peptide text is derived from it. Where no end group is shown, it is not given here.
# Key:
# [1] = target: recombinant alpha-glucosidase from Saccharomyces cerevisiae, which is a maltase (Saccharomyces cerevisiae, UniProt P53341); assay: biochemical; conditions: for median inhibitory concentration of alpha-glucosidase (maltase), times lower relative to the reference inhibitors: relative to acarbose and miglitol; for inhibition of alpha-glucosidase in words: relative to the AP and VAP peptides
# Procedure: The synthetic peptides were supplied by GENOSPHERE Biotechnologies.
# The alpha-glucosidase used is the recombinant alpha-glucosidase from Saccharomyces cerevisiae, which is a maltase.
# The samples were solubilized beforehand in deionized water containing 10% of DMSO (dimethyl sulphoxide).
# After incubation at 37° C. for 20 minutes, 20 μL of the substrate p-NPG (p-nitrophenyl glucopyranoside) at 2.5 mM (prepared in the same buffer as mentioned above) was added to the mixture in order to start the reaction.
# The reaction medium was incubated for 30 minutes at 37° C. and then the reaction was stopped by adding 80 μL of a solution of sodium carbonate (Na2CO3) at 0.3M.
# The quantity of product formed (p-nitrophenyl (p-NP) of yellow colour) was measured by spectrophotometry (absorbance at 410 nm, VersaMax™, Microplate Reader).
# The test was carried out in a 96-well microplate.
# All the inhibition tests were carried out in triplicate.
# The percentage inhibition was calculated from the following equation: […]
# OD sample assay corresponds to the optical density obtained for the mixture “sample+enzyme+substrate”.
# OD assay blank corresponds to the optical density obtained for the mixture “sample+buffer”.
# OD control assay corresponds to the optical density obtained for the mixture “buffer+enzyme+substrate”.
# OD control blank corresponds to the optical density obtained for the buffer.
# [2] = target: T1, recombinant alpha-glucosidase from S. cerevisiae (maltase) (Saccharomyces cerevisiae, UniProt P53341); assay: biochemical; assay type: biochemical; conditions: for IC50: Table 2; for inhibition of α-glucosidase in words: relative to acarbose, miglitol and voglibose
# T1 construct: purchased Sigma G0660-750UN
# Procedure: 20 μl of α-glucosidase in 0.1M potassium phosphate buffer (pH 6.8) at 1.6 U/ml is mixed with 8 μl of the peptide sample or of the reference inhibitor at different concentrations.
# The samples are solubilized beforehand in milliQ water containing 10% DMSO (available from Sigma under reference 472301).
# After preincubation at 37° C. for 15 min, 20 μl of the substrate p-NPG at 20 mM in 0.1M potassium phosphate buffer (pH 6.8) is added to the mixture in order to start the reaction.
# The reaction medium is incubated for 30 min at 37° C. and then the reaction is stopped by adding 80 μl of a 1M solution of sodium carbonate (Na2CO3).
# The quantity of product formed (p-nitrophenyl) is measured by reading the absorbance at 410 nm using the Fluostar Omega spectrophotometer (BMG Labtech, Germany).
# (§1) All the inhibition tests are carried out in triplicate.
# The enzyme used is recombinant alpha-glucosidase from S. cerevisiae (it is a maltase available from Sigma, under reference G0660-750UN).
# The substrate used is 4-nitrophenyl α-D-glucopyranoside (p-NPG) (available from Sigma under reference N1377).
# [3] = system: α-glucosidase; assay: In-vitro determination of the type of inhibition (Lineweaver-Burk, hydrolysis of p-NPG); assay type: biochemical; conditions: straight lines intersect at 1/Vmax
# Procedure: The three straight lines are as follows: • Filled circle: […] • Empty circle: test in the presence of 50 μM of AP • Filled triangle: test in the presence of 100 μM of AP
# Based on the initial rates, the Lineweaver-Burk representations for each concentration of inhibitor LKP were shown and the type of inhibition was determined. The synthetic LKP peptide was supplied by GENOSPHERE Biotechnologies.
# Based on the initial rates, the Lineweaver-Burk representations for each concentration of inhibitor AP were shown and the type of inhibition was determined.
# [4] = system: db/db mice; assay: Oral test of tolerance to maltose in vivo in db/db mice (Example 5); conditions: maltose 2 g/kg; for effect on the glycaemia of the mice during the test of tolerance to maltose: alone or in combination
# Procedure: The inhibitory activity of the AP and VAP peptides and the effect of the AP and VAP peptides on the glycaemic response can be measured in an oral test of tolerance to maltose in vivo in db/db mice that have a glucose intolerance of genetic origin. The mice are 4 weeks of age and each mouse is its own control. A dose of maltose (2 g/kg) was used in order to cause a temporary increase in glycaemia. Four (4) oral tests of tolerance to maltose (2 g/kg) were carried out on each mouse with a minimum interval of 48 h. The order was determined so as to cancel a potentially confounding effect of a change in body composition of the mice during the 3 study weeks. […] The maltose and the test products were administered directly by the oral route (gastric gavage), diluted in 0.9% saline solution. […] • Main Criterion: […] […] The secondary criteria for evaluation were: […] The AUC (area under the curve) was estimated by the trapezium method.
# [5] = target: T2, DPP-IV from pig kidney (Sus scrofa, UniProt P22411); assay: In-vitro determination of the inhibition of DPP-IV by synthetic peptides (Example 14); assay type: biochemical; conditions: for IC50 / inhibitory activity of DPP-IV (IC50) in mmol/l: Table 13, substrate Gly-L-Pro-p-nitroanilide, pH 8.0, 37° C.; for IC50: read-out: inhibitory activity of DPP-IV (IC50); for inhibition of DPP-IV in words: relative to the reference Diprotin A
# T2 construct: The enzyme used is DPP-IV from pig kidney; purchased Sigma D7052; host or cells: pig kidney
# Procedure: The inhibitory activity of synthetic peptides can be measured in vitro according to the following protocol:
# 25 μl of the substrate Gly-L-Pro-p-nitroanilide in 0.1 M Tris-HCL buffer (pH 8.0) at 1.6 mM is mixed with 25 μl of the peptide sample or of reference inhibitor at different concentrations. The samples are solubilized beforehand in Tris HCL buffer (pH8.0).
# After preincubation at 37° C. for 10 min, 50 μl of the DPP-IV enzyme at a concentration of 0.01 U/ml in 0.1 M Tris-HCL buffer (pH 8.0) is added to the mixture in order to start the reaction. The reaction medium is incubated for 60 min at 37° C. and then the reaction is stopped by adding 100 μl of 1M sodium acetate buffer (pH4).
# The quantity of product formed (p-nitroanilide) is measured by reading the absorbance at 385 nm using the Fluostar Omega spectrophotometer (BMG Labtech, Germany).
# as §1
# The substrate used is Gly-L-Pro-p-nitroanilide hydrochloride (available from Sigma under reference G0513).
# The enzyme used is DPP-IV from pig kidney (available from Sigma under reference D7052).
# The reference inhibitor is Diprotin A, corresponding to the Ile-Pro-Ile tripeptide (available from Sigma under reference 19759).
# [6] = target: saccharase (Homo sapiens, UniProt P14410); conditions: in particular saccharase; cited from earlier work
# [7] = Inhibitory activity on α-glucosidase (IC50) in mg/ml
# [8] = Table 1, enzyme 0.2 U/mL, p-NPG 2.5 mM, pH 6.8, 37° C., read-out: Inhibitory activity on α-glucosidase (IC50)
# [9] = enzyme 1.6 U/ml, p-NPG 20 mM, pH 6.8, 37° C., read-out: Inhibitory activity on α-glucosidase (IC50)
# [10] = read-out: Inhibitory activity on α-glucosidase (IC50) in mg/ml (converted)
# [11] = Inhibitory activity on α-glucosidase (IC50) in mmol/l, enzyme 1.6 U/ml, p-NPG 20 mM, pH 6.8, 37° C.
# [12] = Table 1, enzyme 0.2 U/mL, p-NPG 2.5 mM, pH 6.8, 37° C.
# T2 sequence (P22411 whole entry): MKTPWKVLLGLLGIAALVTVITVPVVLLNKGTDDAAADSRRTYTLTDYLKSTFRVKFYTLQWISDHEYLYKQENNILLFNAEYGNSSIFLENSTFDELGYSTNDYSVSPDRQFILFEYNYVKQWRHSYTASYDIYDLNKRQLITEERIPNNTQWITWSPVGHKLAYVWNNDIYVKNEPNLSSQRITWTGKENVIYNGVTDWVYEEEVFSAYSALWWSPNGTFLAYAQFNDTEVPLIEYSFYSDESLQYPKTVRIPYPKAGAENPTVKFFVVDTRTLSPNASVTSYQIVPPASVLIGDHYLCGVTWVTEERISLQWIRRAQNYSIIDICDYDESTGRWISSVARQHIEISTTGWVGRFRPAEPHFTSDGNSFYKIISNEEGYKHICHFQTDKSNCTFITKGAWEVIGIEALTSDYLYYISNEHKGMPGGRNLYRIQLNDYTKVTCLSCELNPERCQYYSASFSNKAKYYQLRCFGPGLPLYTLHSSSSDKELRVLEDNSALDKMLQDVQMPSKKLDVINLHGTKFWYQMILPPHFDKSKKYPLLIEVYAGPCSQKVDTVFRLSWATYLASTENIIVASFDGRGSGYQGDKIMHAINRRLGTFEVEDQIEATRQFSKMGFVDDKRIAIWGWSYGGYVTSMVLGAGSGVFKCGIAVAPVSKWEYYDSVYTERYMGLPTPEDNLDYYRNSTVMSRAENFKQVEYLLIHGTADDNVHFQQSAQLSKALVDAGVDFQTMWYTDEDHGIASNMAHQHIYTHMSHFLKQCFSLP
# T1 sequence (P53341 whole entry): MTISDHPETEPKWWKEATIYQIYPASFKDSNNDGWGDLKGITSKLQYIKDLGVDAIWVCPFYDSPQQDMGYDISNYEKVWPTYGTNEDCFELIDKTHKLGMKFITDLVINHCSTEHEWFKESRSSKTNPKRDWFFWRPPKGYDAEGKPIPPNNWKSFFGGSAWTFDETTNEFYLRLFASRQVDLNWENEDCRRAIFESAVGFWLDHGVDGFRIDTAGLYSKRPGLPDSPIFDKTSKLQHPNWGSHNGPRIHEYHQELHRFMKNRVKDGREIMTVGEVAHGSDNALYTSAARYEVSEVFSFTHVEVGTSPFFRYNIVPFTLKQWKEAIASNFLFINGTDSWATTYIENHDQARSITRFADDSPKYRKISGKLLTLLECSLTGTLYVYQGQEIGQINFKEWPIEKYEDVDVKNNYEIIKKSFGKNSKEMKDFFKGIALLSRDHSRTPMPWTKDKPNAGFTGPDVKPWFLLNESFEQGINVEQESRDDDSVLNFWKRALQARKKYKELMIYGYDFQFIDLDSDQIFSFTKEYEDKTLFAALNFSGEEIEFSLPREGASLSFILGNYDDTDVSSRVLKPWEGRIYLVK
# recombinant alpha-glucosidase from Saccharomyces cerevisiae, which is a maltase, sequence (P53341 whole entry): as above
# saccharase, sequence (P14410 whole entry): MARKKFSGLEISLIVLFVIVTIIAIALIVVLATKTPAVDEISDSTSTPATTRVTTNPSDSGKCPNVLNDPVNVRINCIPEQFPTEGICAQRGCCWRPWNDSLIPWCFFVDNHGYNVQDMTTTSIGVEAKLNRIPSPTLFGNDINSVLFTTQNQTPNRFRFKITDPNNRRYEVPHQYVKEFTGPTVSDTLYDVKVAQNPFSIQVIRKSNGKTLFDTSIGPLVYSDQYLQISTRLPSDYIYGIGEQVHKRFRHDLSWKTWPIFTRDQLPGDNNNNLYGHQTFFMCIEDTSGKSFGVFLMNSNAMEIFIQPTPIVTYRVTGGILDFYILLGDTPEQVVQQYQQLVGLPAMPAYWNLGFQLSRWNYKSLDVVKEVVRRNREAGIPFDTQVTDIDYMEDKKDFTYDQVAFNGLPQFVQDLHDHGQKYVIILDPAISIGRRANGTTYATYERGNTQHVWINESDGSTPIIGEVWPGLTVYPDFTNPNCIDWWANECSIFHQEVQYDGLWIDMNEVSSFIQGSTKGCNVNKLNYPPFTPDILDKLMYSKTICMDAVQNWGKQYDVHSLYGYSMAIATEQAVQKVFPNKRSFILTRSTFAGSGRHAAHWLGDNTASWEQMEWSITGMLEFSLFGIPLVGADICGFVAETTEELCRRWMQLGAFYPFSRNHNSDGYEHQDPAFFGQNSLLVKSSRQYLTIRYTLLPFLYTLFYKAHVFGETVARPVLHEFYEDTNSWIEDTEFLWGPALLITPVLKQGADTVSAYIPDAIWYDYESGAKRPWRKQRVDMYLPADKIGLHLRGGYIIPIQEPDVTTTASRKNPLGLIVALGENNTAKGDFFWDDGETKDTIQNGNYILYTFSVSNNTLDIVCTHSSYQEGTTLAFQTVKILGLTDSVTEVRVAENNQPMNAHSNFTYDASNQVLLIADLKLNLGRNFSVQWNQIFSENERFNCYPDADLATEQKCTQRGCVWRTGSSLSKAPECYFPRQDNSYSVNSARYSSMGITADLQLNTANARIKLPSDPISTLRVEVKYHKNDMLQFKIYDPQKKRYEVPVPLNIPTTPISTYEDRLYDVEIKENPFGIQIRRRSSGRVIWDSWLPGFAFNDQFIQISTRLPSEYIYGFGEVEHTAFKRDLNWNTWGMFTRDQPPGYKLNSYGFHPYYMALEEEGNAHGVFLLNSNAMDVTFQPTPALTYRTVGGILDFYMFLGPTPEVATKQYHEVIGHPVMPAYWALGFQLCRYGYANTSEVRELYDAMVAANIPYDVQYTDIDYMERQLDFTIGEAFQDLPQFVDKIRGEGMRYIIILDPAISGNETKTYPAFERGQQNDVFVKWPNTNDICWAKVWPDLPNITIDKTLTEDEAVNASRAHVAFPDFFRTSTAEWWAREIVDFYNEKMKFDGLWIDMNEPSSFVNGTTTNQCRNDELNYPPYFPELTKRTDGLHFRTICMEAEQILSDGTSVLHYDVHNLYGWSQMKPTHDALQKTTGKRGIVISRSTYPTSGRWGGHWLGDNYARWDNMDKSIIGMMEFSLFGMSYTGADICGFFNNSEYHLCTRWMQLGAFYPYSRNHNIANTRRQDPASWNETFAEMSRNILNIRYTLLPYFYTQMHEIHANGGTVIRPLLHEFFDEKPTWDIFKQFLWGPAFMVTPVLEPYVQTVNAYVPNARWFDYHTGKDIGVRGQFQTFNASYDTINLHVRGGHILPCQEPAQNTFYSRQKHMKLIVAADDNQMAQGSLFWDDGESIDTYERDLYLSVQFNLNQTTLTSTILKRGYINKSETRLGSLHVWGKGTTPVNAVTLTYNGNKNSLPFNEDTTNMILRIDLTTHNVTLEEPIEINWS
molecule,measurement,setting,value
C[C@H](N)C(=O)N1CCC[C@H]1C(=O)O [AP] (H-Ala-Pro-OH; N-terminus and C-terminus assumed),IC50,[1]; IC50 on α-glucosidase,0.0136 ± 0.00092 mM
same,"median inhibitory concentration of alpha-glucosidase (maltase), times lower relative to the reference inhibitors",[1],approximately 900 times
same,IC50,[2]; [7],0.0134 mM
same,inhibition of α-glucosidase in words,[2],strongly inhibit
same,type of inhibition of the degradation of p-NPG,[3],competitive
same,maximum glycaemia value subtracted from the resting value (ΔCmax glycaemia),"[4]; 500 mg/kg by gastric gavage, resting value 150 mg/dl",approximately 280 mg/dl
same,effect on the glycaemia of the mice during the test of tolerance to maltose,[4]; 500 mg/kg,lower the glycaemia
same,effect of treatment on the maximum glycaemia value,[4]; 500 mg/kg,significant effect
same,effect on the glucose AUC during the oral test of tolerance to maltose,"[4]; 500 mg/kg, 0-120 minutes",beneficial effect
same,IC50,[5],4.78 ± 0.284 mM
same,inhibition of DPP-IV in words,[5],very weakly
CC(C)C[C@H](NC(=O)[C@@H]1CCCN1C(=O)CN)C(=O)O [GPL] (H-Gly-Pro-Leu-OH; N-terminus and C-terminus assumed),IC50,[1]; [8],4.82 ± 0.15 mM
same,inhibition of alpha-glucosidase in words,[1],weak inhibitors
same,IC50,[2]; [9],4.82 ± 0.15 mM
same,IC50,[2]; [10],4.81 mM
same,IC50,[5],1.85 ± 0.298 mM
CC[C@H](C)[C@H](N)C(=O)N[C@@H](Cc1ccc(O)cc1)C(=O)O [IY] (H-Ile-Tyr-OH; N-terminus and C-terminus assumed),IC50,[1]; [8],12.3 mM
same,inhibition of alpha-glucosidase in words,[1],weak inhibitors
same,IC50,[2]; [9],12.3 ± 0.25 mM
same,IC50,[2]; [10],12.2 mM
NCCCC[C@H](N)C(=O)N[C@@H](Cc1c[nH]c2ccccc12)C(=O)O [KW] (H-Lys-Trp-OH; N-terminus and C-terminus assumed),IC50,[1]; [8],12.8 ± 0.98 mM
same,inhibition of alpha-glucosidase in words,[1],weak inhibitors
same,IC50,[2]; [9],12.8 ± 0.98 mM
same,IC50,[2]; [10],12.7 mM
NCCCC[C@H](N)C(=O)N[C@@H](Cc1ccc(O)cc1)C(=O)O [KY],IC50,[1]; [8],10.96 ± 0.1 mM
same,inhibition of alpha-glucosidase in words,[1],weak inhibitors
same,IC50,[2]; [9],10.96 ± 0.1 mM
same,IC50,[2]; [10],10.9 mM
same,inhibitory activity of DPP-IV (IC50) in mmol/l,[5],No inhibition
CC(C)C[C@H](N)C(=O)N[C@@H](CCCCN)C(=O)N1CCC[C@H]1C(=O)O [LKP] (H-Leu-Lys-Pro-OH; N-terminus and C-terminus assumed),IC50,"[1]; Inhibitory activity on α-glucosidase (IC50) in mM, Table 1, enzyme 0.2 U/mL, p-NPG 2.5 mM, pH 6.8, 37° C.",7.11 ± 0.2 mM
same,inhibition of alpha-glucosidase in words,[1],weak inhibitors
same,IC50,[2]; [7],7.1 mM
same,IC50,[2]; [11],7.11 ± 0.2 mM
same,type of inhibition of the degradation of p-NPG,[3],competitive
"OCCN1C[C@H](O)[C@@H](O)[C@H](O)[C@H]1CO [Miglitol, miglitol, reference compound]",IC50,[1]; [8],39 ± 0.96 mM
same,IC50,[2]; [7],37.5 mM
same,IC50,[2]; [11],37.5 ± 0.69 mM
same,mode of inhibition of alpha-glucosidase,[6],competitively and reversibly
CC(C)[C@H](N)C(=O)N[C@@H](C)C(=O)N1CCC[C@H]1C(=O)NCC(=O)O [VAPG] (H-VAPG-OH; N-terminus and C-terminus assumed),IC50,[2]; [7],4.05 mM
same,IC50,[5],2.27 ± 0.131 mM
CC(C)[C@H](N)C(=O)N[C@@H](C)C(=O)N1CCC[C@H]1C(=O)O [VAP] (H-Val-Ala-Pro-OH; N-terminus and C-terminus assumed),IC50,[1]; read-out: IC50 on α-glucosidase,0.02 ± 0.00021 mM
same,"median inhibitory concentration of alpha-glucosidase (maltase), times lower relative to the reference inhibitors",[1],approximately 600 times
same,IC50,[2]; [10],0.02 mM
same,inhibition of α-glucosidase in words,[2],strongly inhibit
same,effect on the glycaemia of the mice during the test of tolerance to maltose,[4]; 500 mg/kg,lower the glycaemia
same,IC50,[5],4.82 ± 2.3 mM
same,inhibition of DPP-IV in words,[5],very weakly
CC(C)[C@H](N)C(=O)N[C@@H](Cc1ccc(O)cc1)C(=O)O [VY] (H-Val-Tyr-OH; N-terminus and C-terminus assumed),inhibition of alpha-glucosidase in words,[1],weak inhibitors
same,IC50,[2]; [10],2.7 mM
same,inhibitory activity of DPP-IV (IC50) in mmol/l,[5],No inhibition
AKK: synthetic peptide of sequence AKK,Inhibitory activity on α-glucosidase (IC50) in mM,[1]; [12],No inhibition
AVIPIPT,inhibitory activity of DPP-IV (IC50) in mmol/l,[5],No inhibition
AVPYQR [AVPYQR],IC50,[2]; [7],3.19 mM
same,IC50,[5],5.7 ± 0.08 mM
SAPLRVY [SAPLRVY],IC50,[2]; [7],1.76 mM
same,IC50,[2]; [11],1.76 ± 0.18 mM
same,IC50,[5],1.06 ± 0.031 mM
VAPFPEV [VAPFPEV],IC50,[2]; [7],2.68 mM
same,IC50,[5],1.184 ± 0.008 mM
VGVAPG [VGVAPG],IC50,[2]; [7],4.58 mM
same,IC50,[2]; [11],4.59 ± 0.06 mM
same,IC50,[5],10.7 ± 0.769 mM
VIY: peptide sequence VIY of Table 1,Inhibitory activity on α-glucosidase (IC50) in mM,[1]; [12],No inhibition
